Laboratory results from patent publication US10351501B2, “Gem difluorocompounds as depigmenting or lightening agents” (TFCHEM, priority 2015, dated 2019).
Like-named read-outs stand apart in the source and are kept apart here.

What was measured:
[1] = In vitro human skin absorption, Franz diffusion cell: quantification in the receptor fluid (flux); type: in vitro ADME; conditions: human, 2 mg/ml
Text: The aim of this study was to evaluate the absorption of compound 11 applied to excised human skin.
In vitro method using a Franz diffusion cell allows measuring the diffusion of chemicals into and across skin.
The tested compound is applied to the surface of a human skin explant separating the two chambers of a Franz diffusion cell. The compound remains on the skin for a specified time under specified conditions. The receptor fluid is sampled at time points throughout the experiment and analyzed for the tested compound. The skin may also be fractioned for separate analysis in epidermis or dermis layers.
The transcutaneous absorption was measured on human skin collected from the abdominoplasty of a single donor. At reception, the skin was defatted and cut in several fragments in order to perform Franz experiment. […]
The tested compounds were quantified, at T0 h and T24 h in the receptor solution bathing the inner surface of the skin (determination of flux), or at T24 h in the fractionated skin extracts (epidermis or dermis). […]
Sampling: 500 μL from the receptor fluid were removed at T0 h (replaced by Ringer solution) and at T24 h. These samples were analyzed by LC-MS/MS method for quantification of compound 11 and deoxyarbutin (results not shown). The quantity measured allowed to calculate a flux and to compare the absorption profile across the skin of compound 11 and deoxyarbutin.

human tyrosinase = assay: HumanLike Tyrosinase Assay kit (Feldan), L-Tyrosine to dopachrome, OD at 490 nm; type: biochemical; conditions: for OD at 490 nm: 1.12 mM
Experimental: The efficacy of compound 16 was evaluated by the inhibition of human tyrosinase in tubo and compared to the compound 11.
The assay was performed with a ready-to-use kit from Feldan Inc (Canada): the HumanLike Tyrosinase Assay kit (ref A021-a-001Kit).
The protocol was performed as described in the instructions for use of the manufacturer. Briefly, this kit is intended for the determination of human tyrosinase activity in presence of different inhibitors. The kit measures the conversion of L-Tyrosine into a dopachrome complex absorbing at 490 nm. The time course of the assay is 20 minutes, after which the results are analyzed and compared.
The compounds 11 and 16 have been tested at a final concentration of 1.12 mM.
The measured absorbances at 490 nm are reported in the table 5 and plotted in function of time in the FIG. 1.
Moreover for each compound the efficacy as tyrosinase inhibitor was calculated using the following formula: […]

[2] = biological target: T1, human recombinant tyrosinase (Homo sapiens, UniProt P14679); assay: Inhibition of human tyrosinase in tubo (L-DOPA substrate, OD at 477 nm), IC50; type: biochemical; conditions: for IC50: Tyrosinase Concentration 300 U/mL
T1 sequence (P14679 19-529): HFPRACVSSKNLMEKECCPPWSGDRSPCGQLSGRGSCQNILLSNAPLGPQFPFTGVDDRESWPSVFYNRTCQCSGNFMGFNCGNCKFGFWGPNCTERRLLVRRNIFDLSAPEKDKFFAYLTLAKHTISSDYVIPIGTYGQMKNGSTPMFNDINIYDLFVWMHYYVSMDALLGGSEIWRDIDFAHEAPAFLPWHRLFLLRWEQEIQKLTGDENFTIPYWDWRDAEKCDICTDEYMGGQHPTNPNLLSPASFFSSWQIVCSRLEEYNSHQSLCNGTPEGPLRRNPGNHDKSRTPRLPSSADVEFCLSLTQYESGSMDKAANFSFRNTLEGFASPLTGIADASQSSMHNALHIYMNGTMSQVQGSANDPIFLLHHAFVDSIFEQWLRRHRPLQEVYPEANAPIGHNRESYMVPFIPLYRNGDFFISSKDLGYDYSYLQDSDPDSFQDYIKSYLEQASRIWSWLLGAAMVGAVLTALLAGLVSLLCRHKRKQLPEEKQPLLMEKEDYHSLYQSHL
Experimental: Substrate solution: L-DOPA (1 mg/mL) Solution B (L-DOPA 20 mg/Purified water up to 20 mL)
Preparation of Test Solutions (for IC50 Test—Examples for Deoxyarbutin)
Inhibitors solutions deoxyarbutin (1 mg/mL): Deoxyarbutin 20 mg in purified water up to 20 mL
This assay used a 96-well plate. Test solutions and controls were made several times.
The results were calculated from the OD measured at time point 20 min.
The determination of half maximal inhibitory concentration (IC50) was performed using the following formula.

Compound: Oc1ccc(OC2CCCCC2(F)F)cc1 (racemic) [Compound 11]
- Flux, mean (n = 3) [1]: 2.71 μg/h/cm^2
- OD at 490 nm (human tyrosinase; time 0 min): 0.0000
- OD at 490 nm (human tyrosinase; time 1 min): 0.0095
- OD at 490 nm (human tyrosinase; time 2 min): 0.0190
- OD at 490 nm (human tyrosinase; time 3 min): 0.0295
- OD at 490 nm (human tyrosinase; time 4 min): 0.0400
- OD at 490 nm (human tyrosinase; time 5 min): 0.0505
- OD at 490 nm (human tyrosinase; time 6 min): 0.0610
- OD at 490 nm (human tyrosinase; time 7 min): 0.0715
- OD at 490 nm (human tyrosinase; time 8 min): 0.0825
- OD at 490 nm (human tyrosinase; time 9 min): 0.0925
- OD at 490 nm (human tyrosinase; time 10 min): 0.1035
- OD at 490 nm (human tyrosinase; time 11 min): 0.1135
- OD at 490 nm (human tyrosinase; time 12 min): 0.1245
- OD at 490 nm (human tyrosinase; time 13 min): 0.1355
- OD at 490 nm (human tyrosinase; time 14 min): 0.1465
- OD at 490 nm (human tyrosinase; time 15 min): 0.1575
- OD at 490 nm (human tyrosinase; time 16 min): 0.1685
- OD at 490 nm (human tyrosinase; time 17 min): 0.1790
- OD at 490 nm (human tyrosinase; time 18 min): 0.1900
- OD at 490 nm (human tyrosinase; time 19 min): 0.2010
- OD at 490 nm (human tyrosinase; time 20 min): 0.2120
- Inhibitor efficacy (%) (human tyrosinase; Compound at 1.12 mM, T = 20 min): 13.5%
- IC50 ([2]; mean of 4 tests, read-out: Calculated IC50 Mean (converted)): 35.1 µM
- IC50 ([2]; read-out: IC50): 35 µM
- IC50 ([2]; time 20 min, read-out: Calculated IC50 Test #1 (converted)): 35.1 µM
- IC50 ([2]; time 20 min, read-out: Calculated IC50 Test #2 (converted)): 35.1 µM
- IC50 ([2]; time 20 min, read-out: Calculated IC50 Test #3 (converted)): 35.1 µM
- IC50 ([2]; time 20 min, read-out: Calculated IC50 Test #4 (converted)): 35.1 µM
- inhibits the human recombinant tyrosinase, times more than the Deoxyarbutin ([2]; comparison of IC50): 7-8 times
